Results from US8575214B2, “MGlu 2/3 agonists” (Eli Lilly and Company, priority 2012, dated 2013).
pIC50: −log10 of the molar value.

Key:
[1] = target: T1, hPepT1 (Homo sapiens, UniProt P46059); assay: In vitro PepT1 GlySar inhibition screen and IC50 determination; format: cell-based; details: PepT1 transiently transfected HeLa cells; for inhibition at 5000 µM: pH 6.0, 3 minutes, read-out: hPepT1 [3H]Gly-Sar uptake inhibition at 5 mM
T1 construct: expressed in transfected cells; host or cells: HeLa cells (ATCC), transient transfection with PepT1 DNA using FuGene6
T1 sequence (P46059 1-708): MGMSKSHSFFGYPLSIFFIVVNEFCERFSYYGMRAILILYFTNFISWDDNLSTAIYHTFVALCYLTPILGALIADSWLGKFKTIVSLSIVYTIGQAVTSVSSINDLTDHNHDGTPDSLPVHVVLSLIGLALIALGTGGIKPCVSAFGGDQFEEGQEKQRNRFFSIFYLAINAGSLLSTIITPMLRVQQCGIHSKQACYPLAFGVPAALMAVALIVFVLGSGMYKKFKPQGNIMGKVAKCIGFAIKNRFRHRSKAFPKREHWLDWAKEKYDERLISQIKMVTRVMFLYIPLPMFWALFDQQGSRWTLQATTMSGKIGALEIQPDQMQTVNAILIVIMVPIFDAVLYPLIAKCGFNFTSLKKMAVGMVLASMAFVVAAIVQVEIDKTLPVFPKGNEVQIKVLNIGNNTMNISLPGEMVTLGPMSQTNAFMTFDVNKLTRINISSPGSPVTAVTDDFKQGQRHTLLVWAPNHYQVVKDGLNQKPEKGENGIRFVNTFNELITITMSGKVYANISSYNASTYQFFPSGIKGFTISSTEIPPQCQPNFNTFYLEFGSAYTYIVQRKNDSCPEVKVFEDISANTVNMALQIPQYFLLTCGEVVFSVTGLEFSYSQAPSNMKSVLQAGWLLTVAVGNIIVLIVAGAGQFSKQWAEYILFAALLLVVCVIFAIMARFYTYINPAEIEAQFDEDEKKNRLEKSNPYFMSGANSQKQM
Procedure: HeLa cells, […], (American Type Culture Collection) are grown in Hyclone Medium (Invitrogen, Cat# SH30243) containing 10% fetal bovine serum (FBS), 0.1 mM non essential amino acids (NEAA), and 100 units/mL penicillin with 100 μg/mL streptomycin at 37° C. in a 5% CO2 humidified atmosphere. The cell line is used for up to 40 passages and then discarded. Frozen cells in 1 ml vials are thawed in water bath for 1-2 minutes and added to 5 mL of cell medium at 37° C. Each of the T-flasks is provided with 8.5 mL of the fresh medium and 1.5 mL of the cell stock. Cells are passaged twice during a week. This is achieved by rinsing the flasks with 10 mL of phosphate buffered saline-ethylene diaminetetra acetic acid (PBS-EDTA), adding 2 mL of trypsin for 2-5 minutes, to detach the cells, and adding 8 mL of fresh medium to inhibit further activity of trypsin. Each new flask receives a combination of 8.5 mL of fresh medium and 1.5 mL of cell stock, in order to obtain 1:6 cell dilution. Cells are incubated at 37° C., until ready for the uptake study.
Cells that are 70-80% confluent in the T-flasks are plated 1 day prior to the transfection procedure. The flask with the cell stock is treated with PBS-EDTA and trypsin to detach the cells, and transfection medium is used from this point. Transfection medium consists of Dulbecco's Modified Eagle Medium (DMEM)+NEAA. To each well, 0.5 mL of the cell mixture is added (1.3×10^5 is the desired cell concentration) and the cells are incubated at 37° C. overnight. Twenty four hours before the assay, cells are transfected with PEPT1. Transfection mixture is prepared by mixing 600 μL of serum free transfection medium, 18 μL of FuGene6 (Roche Diagnostics), and 11 μg of the PepT1 DNA. The transfection reagent-DNA complex is incubated for 20 minutes and 24 μL of the reagent-DNA complex is added to each well.
J. Pharm. Exper Ther. 310:437-445). […] Uptake media consists of 140 mM NaCl, 5.4 mM KCl, 1.8 mM CaCl2, 0.8 mM MgSO4, 5 mM Glucose, 25 mM tris(hydroxymethyl)aminomethane buffer (TRIS). The solution is then brought to pH 6.0 using 2-(N-morpholino)ethanesulfonic acid. The incubation volume is 500 μL and is performed at room temperature for 3 minutes. To stop the uptake at the conclusion of the incubation time, the uptake media is aspirated off of the cell monolayer and 500 μL of ice cold PBS added to the well. The cells are washed 3 times with 500 μL of room temperature PBS without Ca^+2 and Mg^+2. The cells are then lysed with 300 μL of 1% Triton X100 H2O solution. […] A no inhibitor control is established and the percent inhibition of each prodrug is calculated with respect to this control.
The incubation and sampling procedures are exactly the same as the PepT1 screen described above.

[2] = 1 h, 10 µM, pH 7.4
Procedure: Frozen human duodenum intestinal homogenates (1:2 tissue:buffer ratio using 100 mM Tris Phosphate buffer, pH 7.4) are obtained from Celsius In Vitro Technologies (Baltimore, Md.) that were both phenylmethylsulphonylfluoride (PMSF) and EDTA free.
All original tissue collections are performed at 4° C. and immediately frozen at −70° C. Human intestinal homogenates are thawed and diluted to a final protein concentration of 0.5 mg/mL in 100 mM PBS buffer, pH 7.4 immediately prior to the incubations.
Incubations are conducted in 96-well plates and all prodrugs are run in duplicate on each day. Stock prodrug solutions are prepared in water at a concentration of 1 mM. A 200 μL aliquot of 0.5 mg/mL intestinal homogenate and 196 μL of 100 mM PBS buffer are placed in a 96-well plate in a 37° C. water bath. Using a 96-well pipettor, 4 μL of the 1 mM prodrug solution is transferred into the homogenate. Immediately after addition of the prodrug (time zero) and after 1 hour incubation, 50 μL samples of the incubation mixture are removed using an automated disposable simultaneous 96 well pipettor and added directly to 200 μL of methanol quench solution containing 100 ng/mL of Internal Standard. The samples are then centrifuged at 3500 rpm for 5 minutes at 10° C. The supernatant (200 μL) is transferred to a final 96 well PCR plate and sealed for analysis by LC/MS/MS.
Concentrations of hydrolyzed active metabolite in the incubation mixtures are determined using LC/MS/MS detection on a Sciex API 4000 quadrapole mass spectrometer with Analyst version 1.4.2, TurbolonSpray, positive ionization, and Selected Reaction Monitoring (SRM). […]
Averages and standard deviations are calculated using Microsoft® Office Excel® 2007. Amount of hydrolysis is determined as a molar percentage of active metabolite formed relative to prodrug concentration added.

[3] = system: male, Sprague-Dawley rats; assay: Reversal of phencyclidine (PCP)-induced hyperlocomotor activity in rats; format: in vivo, rat; details: Rattus norvegicus; p.o., overnight fasted rats, 4 hours prior to 5 mg/kg PCP
Description: Motor activity is monitored by placing individual male, Sprague-Dawley (Harlan, Indianapolis, Ind.) rats in transparent, plastic shoe-box cages of the dimensions 45×25×20 cm, with 1 cm depth of wood chips as bedding, and a metal grill on top of the cage. Motor monitors (Kinder Scientific) consist of a rectangular rack of 12 photobeams arranged in an 8×4 formation, (or a high density grouping of 22 in a 15×7 pattern) at a height of 5 cm, with a second rack (for measuring rearing behaviors) at a height of 15 cm. The shoe box cage is placed inside of these racks, with the racks on a 3 foot high tabletop in an isolated room. A compound of the invention (active) is dosed (intraperitoneal route) within a range of 0.3-10 mg/kg, 30 minutes prior to a 5 mg/kg challenge dose of phencyclidine (PCP). A compound of the invention (prodrug) is orally dosed within a range of 0.3-30 mg/kg, in overnight fasted rats, 4 hours prior to a 5 mg/kg challenge dose of PCP. On the test day, rats are placed in the test cage and allowed to acclimate for 30 minutes prior to PCP challenge; rats are monitored for an additional 60 minutes following PCP administration.
Data analysis and ED50 calculations are conducted using GraphPad Prism (San Diego, Calif. USA). Power analyses have determined that 8-10 rats per group are needed to have appropriate statistical power for detecting treatment differences (power=0.8). A one-way analysis of variance (ANOVA) with a post-hoc Dunnett's multiple comparison test is conducted on the total 60 minute locomotor activity. ED50 calculations are performed using non-linear regression curve fitting on percent reversal transformed data for each dose.

| Structure (SMILES) | inhibition at 5000 µM [1] [%] | human intestinal hydrolysis relative to Internal Prodrug A [2] [%] | ED50 [3] [mg/kg] | pIC50 ([1]; 0.0625 to 25 mM, read-out: hPepT1 [3H]Gly-Sar uptake inhibition IC50) |
| --- | --- | --- | --- | --- |
| Cl.NCC(=O)N[C@@]1(C(=O)O)CC2(CC2)[C@H]2[C@H](C(=O)O)[C@H]21 [Example 7, (1S,2S,5R,6S)-2-[(2-Aminoacetyl)amino]spiro[bi-cyclo[3.1.0]hexane-4,1′-cyclo-propane]-2,6-dicarboxylic acid hydrochloride] | 78 | 34 | – | – |
| CSCC[C@H](N)C(=O)N[C@@]1(C(=O)O)CC2(CC2)[C@H]2[C@H](C(=O)O)[C@H]21.Cl [Example 6, (1S,2S,5R,6S)-2-[[(2S)-2-Amino-4-methylsulfanyl-butanoyl]amino]spiro[bi-cyclo[3.1.0]hexane-4,1′-cyclopropane]-2,6-dicarboxylic acid hydrochloride] | 87 | 44 | 4.31 | 3.60 |
